Article PMC10818824, “In Vitro and In Silico Analysis of the Bindings between Legacy and Novel Per- and Polyfluoroalkyl Substances and Human Serum Albumin” (Toxics, 2024)

molecular target: T1, HSA (human serum albumin) (Homo sapiens, UniProt P02768); assay: intrinsic fluorescence quenching, double-log fit; format: binding; set-up: unit not given here; details: Tris-HCl pH 7.4, room temperature, 30 min, ex 275 nm; ethanol stocks; KA unit not given
T1 construct: gene ALB; mature single chain of 585 residues, N-terminal Asp, C-terminal Leu; untagged; monomer
T1 sequence (P02768 25-609): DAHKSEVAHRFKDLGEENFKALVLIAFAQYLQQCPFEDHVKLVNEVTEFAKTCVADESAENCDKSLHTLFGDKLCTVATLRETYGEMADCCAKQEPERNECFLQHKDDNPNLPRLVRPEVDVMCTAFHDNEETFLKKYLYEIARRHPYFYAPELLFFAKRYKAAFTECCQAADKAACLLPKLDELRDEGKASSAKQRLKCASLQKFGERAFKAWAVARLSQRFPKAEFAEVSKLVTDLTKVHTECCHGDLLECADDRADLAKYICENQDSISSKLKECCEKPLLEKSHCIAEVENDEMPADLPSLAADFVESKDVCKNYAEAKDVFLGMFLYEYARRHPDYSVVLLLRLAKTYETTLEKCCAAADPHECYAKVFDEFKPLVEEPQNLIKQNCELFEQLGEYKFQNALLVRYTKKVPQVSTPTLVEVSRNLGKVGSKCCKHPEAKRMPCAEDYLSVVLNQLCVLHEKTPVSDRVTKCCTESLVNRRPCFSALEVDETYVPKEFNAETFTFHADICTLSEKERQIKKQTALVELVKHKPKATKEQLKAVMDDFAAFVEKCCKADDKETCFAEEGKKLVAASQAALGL
Excerpt: intrinsic fluorescence quenching, double-log fit on HSA (human serum albumin)

SMILES	Binding Constant KA
O=S(=O)(O)C(F)(F)C(F)(F)OC(F)(F)C(F)(F)C(F)(F)C(F)(F)C(F)(F)C(F)(F)Cl [9Cl-PF3ONS, 9–chlorohexadecafluoro–3–oxanone–1–sulfonic acid]	117.112
O=S(=O)(O)C(F)(F)C(F)(F)OC(F)(F)C(F)(F)C(F)(F)C(F)(F)C(F)(F)C(F)(F)C(F)(F)C(F)(F)Cl [11Cl-PF3OUdS, 11–chloroeicosafluoro–3–oxaundecane–1–sulfonic acid]	127.6145
O=C(O)C(F)(F)C(F)OC(F)(F)C(F)(F)C(F)(F)OC(F)(F)F (centres unmarked) [NaDONA, sodium dodecafluoro-3H–4,8–dioxanonanoate]	93.0894
O=C(O)C(F)(F)C(F)(F)C(F)(F)F [PFBA]	20.3657
O=S(=O)(O)C(F)(F)C(F)(F)C(F)(F)C(F)(F)F [PFBS]	116.4930
O=S(=O)(O)C(F)(F)C(F)(F)C(F)(F)C(F)(F)C(F)(F)C(F)(F)F [PFHxS]	157.9429
O=S(=O)(O)C(F)(F)C(F)(F)C(F)(F)C(F)(F)C(F)(F)C(F)(F)C(F)(F)C(F)(F)F [PFOS]	394.639
O=S(=O)(O)C(F)(F)C(F)(F)C(F)(F)F [PFPrS]	79.4511
